Measurements reported in PubChem BioAssay AID1918996 (Molecular Pharmacology Branch, DTP, NCI, 2023).

System: 349418-098-R-PDC complex spheroid growth
Experiment: Anticancer human tumor 349418-098-R-PDC patient-derived lung adenocarcinoma cell line growth inhibition [AhR]
Details: for IC50: curve of first compound; for viability, T/C: stronger effect = lower value
Method in brief: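 Spheroids combined tumor cells with HUVEC endothelial cells and human MSCs as stroma. AhR antagonists were paired with standard or investigational drugs, each dosed in half-log steps down from near clinical Cmax, or from 10 microM where Cmax was unknown.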

[1] = second compound 0.1 µM, first compound 0.0316 µM
[2] = second compound 0.1 µM, first compound 0.1 µM
[3] = second compound 0.1 µM, first compound 0.316 µM
[4] = second compound 0.1 µM, first compound 1 µM
[5] = second compound 0.1 µM, first compound 3.16 µM
[6] = second compound 0.1 µM, first compound 10 µM
[7] = second compound 0.316 µM, first compound 0.0316 µM
[8] = second compound 0.316 µM, first compound 0.1 µM
[9] = second compound 0.316 µM, first compound 0.316 µM
[10] = second compound 0.316 µM, first compound 1 µM
[11] = second compound 0.316 µM, first compound 3.16 µM
[12] = second compound 0.316 µM, first compound 10 µM
[13] = second compound 1 µM, first compound 0.0316 µM
[14] = second compound 1 µM, first compound 0.1 µM
[15] = second compound 1 µM, first compound 0.316 µM
[16] = second compound 1 µM, first compound 1 µM
[17] = second compound 1 µM, first compound 3.16 µM
[18] = second compound 1 µM, first compound 10 µM
[19] = second compound 3.16 µM, first compound 0.0316 µM
[20] = second compound 3.16 µM, first compound 0.1 µM
[21] = second compound 3.16 µM, first compound 0.316 µM
[22] = second compound 3.16 µM, first compound 1 µM
[23] = second compound 3.16 µM, first compound 3.16 µM
[24] = second compound 3.16 µM, first compound 10 µM
[25] = second compound 10 µM, first compound 0.0316 µM
[26] = second compound 10 µM, first compound 0.1 µM
[27] = second compound 10 µM, first compound 0.316 µM
[28] = second compound 10 µM, first compound 1 µM
[29] = second compound 10 µM, first compound 3.16 µM
[30] = second compound 10 µM, first compound 10 µM
[31] = second compound 0.1 µM, first compound 0.00316 µM
[32] = second compound 0.1 µM, first compound 0.01 µM
[33] = second compound 0.316 µM, first compound 0.00316 µM
[34] = second compound 0.316 µM, first compound 0.01 µM
[35] = second compound 1 µM, first compound 0.00316 µM
[36] = second compound 1 µM, first compound 0.01 µM
[37] = second compound 3.16 µM, first compound 0.00316 µM
[38] = second compound 3.16 µM, first compound 0.01 µM
[39] = second compound 10 µM, first compound 0.00316 µM
[40] = second compound 10 µM, first compound 0.01 µM
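Further: spheroids exposed to agents for seven days before luminescence viability read.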

Work on COc1cccc2c1C(=O)c1c(O)c3c(c(O)c1C2=O)CC(O)(C(=O)CO)CC3OC1CC(N)C(O)C(C)O1 (stereo not given) + Cc1ccccc1N=Nc1ccc(NC(=O)c2ccnn2C)c(C)c1 yielded an IC50 (second compound 0.1 µM) of under 31.6 nM, an IC50 (second compound 0.316 µM) of under 31.6 nM and an IC50 (second compound 1 µM) of under 31.6 nM. For the same compound, the IC50 (second compound 3.16 µM) was under 31.6 nM, the IC50 (second compound 10 µM) was under 31.6 nM and the viability, T/C [1] was 25.2%. For the same compound, the viability, T/C [2] was 19%, the viability, T/C [3] was 5.76% and the viability, T/C [4] was 0.44%. The viability, T/C [5] was 4.06%, the viability, T/C [6] was 7.47% and the viability, T/C [7] was 21.5%. It also gave a viability, T/C [8] of 17.8%, a viability, T/C [9] of 5.6% and a viability, T/C [10] of 1.97%. For the same compound, the viability, T/C [11] was 4.18%, the viability, T/C [12] was 7.15% and the viability, T/C [13] was 24.3%. It also gave a viability, T/C [14] of 19.2%, a viability, T/C [15] of 6.34% and a viability, T/C [16] of 0.81%. The viability, T/C [17] was 4.84%, the viability, T/C [18] was 6.54% and the viability, T/C [19] was 23.6%. The viability, T/C [20] was 18%, the viability, T/C [21] was 6.45% and the viability, T/C [22] was 0.66%. It also gave a viability, T/C [23] of 4.34%, a viability, T/C [24] of 6.09% and a viability, T/C [25] of 20.4%. The viability, T/C [26] was 15.6%, the viability, T/C [27] was 4.32% and the viability, T/C [28] was 1.12%. The viability, T/C [29] was 3.09% and the viability, T/C [30] was 7.07%.

Nc1ncn(C2CC(O)C(CO)O2)c(=O)n1 (stereo not given) + Cc1ccccc1N=Nc1ccc(NC(=O)c2ccnn2C)c(C)c1 showed an IC50 (second compound 0.1 µM) of 59 nM, an IC50 (second compound 0.316 µM) of 66.1 nM and an IC50 (second compound 1 µM) of 107 nM. It also gave an IC50 (second compound 3.16 µM) of 68 nM, an IC50 (second compound 10 µM) of 50.5 nM and a viability, T/C [31] of 97.8%. It also gave a viability, T/C [32] of 103%, a viability, T/C [1] of 66.1% and a viability, T/C [2] of 39.9%. It also gave a viability, T/C [3] of 39.1%, a viability, T/C [4] of 30% and a viability, T/C [33] of 77.8%. The viability, T/C [34] was 111%, the viability, T/C [7] was 73.1% and the viability, T/C [8] was 38.8%. The viability, T/C [9] was 37.7%, the viability, T/C [10] was 34.5% and the viability, T/C [35] was 79.6%. It also gave a viability, T/C [36] of 99.2%, a viability, T/C [13] of 69.9% and a viability, T/C [14] of 51.8%. It also gave a viability, T/C [15] of 44%, a viability, T/C [16] of 34% and a viability, T/C [37] of 91.1%. The viability, T/C [38] was 74.4%, the viability, T/C [19] was 61% and the viability, T/C [20] was 42.2%. For the same compound, the viability, T/C [21] was 41.3%, the viability, T/C [22] was 34% and the viability, T/C [39] was 54.7%. The viability, T/C [40] was 61.4%, the viability, T/C [25] was 53.9% and the viability, T/C [26] was 42.8%. It also gave a viability, T/C [27] of 37.2% and a viability, T/C [28] of 29.5%.

With CC1COCCN1c1cc(-c2ccnn2C)c2ccnc(-c3ccn[nH]3)c2n1 (stereo not given) + CC(CO)NC(=O)c1cc(-c2ccc(Cl)cc2)nn(-c2cnn(C)c2)c1=O the IC50 (second compound 0.1 µM) was 79.1 nM, the IC50 (second compound 0.316 µM) was 68.8 nM and the IC50 (second compound 1 µM) was 82.3 nM. For the same compound, the IC50 (second compound 3.16 µM) was 67.4 nM, the IC50 (second compound 10 µM) was 52.9 nM and the viability, T/C [31] was 90.3%. The viability, T/C [32] was 99.2%, the viability, T/C [1] was 81.9% and the viability, T/C [2] was 41.9%. It also gave a viability, T/C [3] of 14.2%, a viability, T/C [4] of 10.3% and a viability, T/C [33] of 87.4%. It also gave a viability, T/C [34] of 92.3%, a viability, T/C [7] of 89.1% and a viability, T/C [8] of 31.2%. For the same compound, the viability, T/C [9] was 15.8%, the viability, T/C [10] was 9.1% and the viability, T/C [35] was 112%. The viability, T/C [36] was 128%, the viability, T/C [13] was 91.6% and the viability, T/C [14] was 42.2%. The viability, T/C [15] was 16.6%, the viability, T/C [16] was 10.9% and the viability, T/C [37] was 67.7%. It also gave a viability, T/C [38] of 96.1%, a viability, T/C [19] of 85.3% and a viability, T/C [20] of 32.8%. It also gave a viability, T/C [21] of 15.8%, a viability, T/C [22] of 12% and a viability, T/C [39] of 62.8%. The viability, T/C [40] was 94%, the viability, T/C [25] was 69.1% and the viability, T/C [26] was 25.2%. The viability, T/C [27] was 14.2% and the viability, T/C [28] was 10.1%.

For CCc1c2c(nc3ccc(O)cc13)-c1cc3c(c(=O)n1C2)COC(=O)[C@]3(O)CC + CC(CO)NC(=O)c1cc(-c2ccc(Cl)cc2)nn(-c2cnn(C)c2)c1=O, the IC50 (second compound 0.1 µM) was under 0.949 nM, the IC50 (second compound 0.316 µM) was under 0.949 nM and the IC50 (second compound 1 µM) was under 0.949 nM. The IC50 (second compound 3.16 µM) was under 0.949 nM, the IC50 (second compound 10 µM) was under 0.949 nM and the viability, T/C (second compound 0.1 µM, first compound 0.000949 µM) was 42.1%. For the same compound, the viability, T/C (second compound 0.1 µM, first compound 0.003 µM) was 37.1%, the viability, T/C (second compound 0.1 µM, first compound 0.00949 µM) was 18.3% and the viability, T/C (second compound 0.1 µM, first compound 0.03 µM) was 8.94%. For the same compound, the viability, T/C (second compound 0.1 µM, first compound 0.0949 µM) was 5.8%, the viability, T/C (second compound 0.1 µM, first compound 0.3 µM) was 3.72% and the viability, T/C (second compound 0.316 µM, first compound 0.000949 µM) was 34.2%. The viability, T/C (second compound 0.316 µM, first compound 0.003 µM) was 30.5%, the viability, T/C (second compound 0.316 µM, first compound 0.00949 µM) was 13.1% and the viability, T/C (second compound 0.316 µM, first compound 0.03 µM) was 7.93%. It also gave a viability, T/C (second compound 0.316 µM, first compound 0.0949 µM) of 5.5%, a viability, T/C (second compound 0.316 µM, first compound 0.3 µM) of 4.2% and a viability, T/C (second compound 1 µM, first compound 0.000949 µM) of 33.9%. For the same compound, the viability, T/C (second compound 1 µM, first compound 0.003 µM) was 21%, the viability, T/C (second compound 1 µM, first compound 0.00949 µM) was 14.2% and the viability, T/C (second compound 1 µM, first compound 0.03 µM) was 9.54%. It also gave a viability, T/C (second compound 1 µM, first compound 0.0949 µM) of 8.88%, a viability, T/C (second compound 1 µM, first compound 0.3 µM) of 4.3% and a viability, T/C (second compound 3.16 µM, first compound 0.000949 µM) of 22.4%. It also gave a viability, T/C (second compound 3.16 µM, first compound 0.003 µM) of 18.9%, a viability, T/C (second compound 3.16 µM, first compound 0.00949 µM) of 13% and a viability, T/C (second compound 3.16 µM, first compound 0.03 µM) of 7.97%. The viability, T/C (second compound 3.16 µM, first compound 0.0949 µM) was 6.24%, the viability, T/C (second compound 3.16 µM, first compound 0.3 µM) was 4.5% and the viability, T/C (second compound 10 µM, first compound 0.000949 µM) was 20.1%. It also gave a viability, T/C (second compound 10 µM, first compound 0.003 µM) of 17.4%, a viability, T/C (second compound 10 µM, first compound 0.00949 µM) of 12.2% and a viability, T/C (second compound 10 µM, first compound 0.03 µM) of 8.79%. The viability, T/C (second compound 10 µM, first compound 0.0949 µM) was 6.32% and the viability, T/C (second compound 10 µM, first compound 0.3 µM) was 5.7%.

Work on COc1ccc([C@@H](O)c2cc(-c3ncnc4cc(N5CCOCC5)ccc34)c(F)cc2Cl)nn1 + Cc1ccccc1N=Nc1ccc(NC(=O)c2ccnn2C)c(C)c1 yielded an IC50 (second compound 0.1 µM) of 1460 nM, an IC50 (second compound 0.316 µM) of 816 nM and an IC50 (second compound 1 µM) of 945 nM. The IC50 (second compound 3.16 µM) was 775 nM, the IC50 (second compound 10 µM) was 356 nM and the viability, T/C [1] was 96.9%. It also gave a viability, T/C [2] of 102%, a viability, T/C [3] of 76.2% and a viability, T/C [4] of 62.8%. For the same compound, the viability, T/C [5] was 29.8%, the viability, T/C [6] was 11.7% and the viability, T/C [7] was 76.4%. For the same compound, the viability, T/C [8] was 99.5%, the viability, T/C [9] was 63.1% and the viability, T/C [10] was 47.3%. For the same compound, the viability, T/C [11] was 23.1%, the viability, T/C [12] was 11% and the viability, T/C [13] was 74.1%. For the same compound, the viability, T/C [14] was 91.7%, the viability, T/C [15] was 81.6% and the viability, T/C [16] was 45.5%. It also gave a viability, T/C [17] of 28.2%, a viability, T/C [18] of 12% and a viability, T/C [19] of 73.8%. It also gave a viability, T/C [20] of 77.2%, a viability, T/C [21] of 58% and a viability, T/C [22] of 49.4%. The viability, T/C [23] was 25.1%, the viability, T/C [24] was 12.7% and the viability, T/C [25] was 63.2%. It also gave a viability, T/C [26] of 45.6%, a viability, T/C [27] of 58.6% and a viability, T/C [28] of 31.9%. The viability, T/C [29] was 21.3% and the viability, T/C [30] was 10%.
